According to the NIST ThermoML archive (doi:10.1021/je800418m):
Values joined by “and” are separate entries in the source; they are usually repeats but may differ in a detail not shown here. Equal values may be shown once.

Details: Crystal

N.O=C(O)C(F)(F)C(F)(F)C(F)(F)C(F)(F)C(F)(F)C(F)(F)C(F)(F)F [ammonium perfluorooctanoate]
Details	vapor or sublimation pressure
318.35 K	3e-05 kPa
318.45 K	2e-05 kPa
318.55 K	3e-05 kPa and 5e-05 kPa
318.75 K	1e-05 kPa
318.85 K	7e-05 kPa
328.25 K	7e-05 kPa
328.35 K	6e-05 kPa
328.45 K	6e-05 kPa
328.65 K	9e-05 kPa and 0.00019 kPa
328.75 K	4e-05 kPa and 9e-05 kPa and 6e-05 kPa
328.85 K	0.00014 kPa and 6e-05 kPa and 0.00011 kPa
333.15 K	9e-05 kPa
333.35 K	0.00023 kPa
333.65 K	0.00013 kPa [middle of 4 runs]
333.75 K	0.00021 kPa
